A short description of this data set: Acute toxicity, single oral administration to mice. The following applies: mouse, in vivo, p.o. The source says: Moreover, the Table contains data concerning the acute toxicity, that is, LD50 in mg/kg in the case of single oral administration to mice.

SMILES strings stand for the structures.

A word on the LD50: it is the dose expected to kill half of the subjects tested. A low value points to greater toxicity.

The compound `COc1ccc(C(=O)N2CCC(O)C2=O)cc1O` (racemic) [R,S, (R,S)-1-(3-hydroxy-4-methoxybenzoyl)-3-hydroxy-2-pyrrolidinone] registered an LD50 of more than 5000 mg/kg.
As for `COc1ccc(C(=O)N2CC[C@@H](O)C2=O)cc1O` [R, (R)-1-(3-hydroxy-4-methoxybenzoyl)-3-hydroxy-2-pyrrolidinone], the figure is more than 5000 mg/kg; as for `COc1ccc(C(=O)N2CC[C@H](O)C2=O)cc1O` [S, (S)-1-(3-hydroxy-4-methoxybenzoyl)-3-hydroxy-2-pyrrolidinone], more than 4000 mg/kg.

(Values after patent US4452807A, “(R,S)-1-(3-Hydroxy-4-methoxybenzoyl)-3-hydroxy-2-pyrrolidinone intermediates therefor and use for treating cerebral insufficiency” (Hoffmann-La Roche Inc., priority 1981, dated 1984).)
